Legend:
Assay type in all cases: in vivo
Meloidogyne incognita = experiment: Root infestation on agar plate: root knot count on potato microplant roots; details: 60 μM in agar, galls counted 5 weeks after inoculation, four replicates
Method in brief: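 Potato cv. Desirée microplants were grown 2-3 weeks on agar at 20 °C, and compound diffused in from DMSO for 2 days (60 μM in agar). Plates were then inoculated with ~400 axenic M. incognita juveniles. Root galls were counted 5 weeks later in the dark at 20 °C, with four replicates per compound and root toxicity noted.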

[1] = test system: stubby root nematodes (Paratrichodorus), stunt nematodes (Tylenchorhynchus spp.), root lesion nematodes (Pratylenchus spp.) and root knot nematodes …; experiment: Nematicide field trial on carrots: % deformed carrots
Procedure: Garden carrots were grown in the open field. The soil contained high levels of stubby root nematodes (Paratrichodorus), stunt nematodes (Tylenchorhynchus spp.), root lesion nematodes (Pratylenchus spp.) and root knot nematodes (Meloidogyne spp.).
An experimental pattern at Complete Randomized Blocks with four replicas was adopted. Besides the experimental products, each test also included an untreated control and a treatment with the standard commercial product VYDATE 10L (10%) applied in accordance to label instructions.
In carrots, nematodes cause deformation such as stunting, dwarfing, twisting, splitting and bearding. For these experiments, the total percentage of deformed carrots were considered, as these are not marketed for human consumption and are of no commercial interest.
Three different tests have been performed (Tables 9, 10 and 11), each containing an untreated and commercial reference control. All treatments were statistically different from untreated control.

[2] = test system: Meloidogyne incognita nematodes; experiment: Pot Assay 1: Meloidogyne infection of potato, egg masses/galls on roots; details: potato in pot, week 8 after inoculation
Method in brief: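 Potato (cv. Bintje) grown in sand pots at 14–18 °C in greenhouse. Compound in DMSO spread on sand one day before inoculation with ~1500 M. incognita juveniles; concentration assumes full diffusion in pot. Root galls counted 8 weeks post-inoculation, plant development also scored; triplicates, aldicarb and DMSO/untreated controls.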

Meloidogyne nematodes = experiment: Pot Assay 2: Meloidogyne infection of tomato, % infestation of roots; details: RATE 0.05 mg; tomato in infested soil
Procedure: The soil used in this assay originated from a plot, heavily infested with Meloidogyne nematodes. Part of this soil was sterilized by autoclaving and was used as negative control. Sandy soil, which was not infested with nematodes, was pursued from a commercial source.
Plastic seedling trays with wells of 60 ml capacity were filled with about 40 ml of soil per well. 5 ml of water per well was used for irrigation.
Compounds as described herein were tested in 4 different rates and with 12 replicates for each concentration. The compounds as described herein were stored as dry films of 4 different concentrations. The day of the application of the compounds, all the dry films were dissolved in 60 ml water and poured into the 12 replicate wells: 5 ml per well. Every tray of 12 wells was identified with a label, indicating compound and concentration used. The 4 final rates in the soil of the tested compound were approximately 0.05 mg, 0.20 mg, 1 mg and 5 mg. These amounts translate to field application rates respectively as 30, 120, 600 and 3000 g per hectare.
3-5 days after application of the tested compound, tomato seeds (cv. Rio Grande) were sown in the wells by hand, at about 2 cm deep. A light cover of vermiculite on the surface was used to avoid dehydration. Plants were irrigated by micro-nebulization 3-4 times per week at a rate of 3 L/m^2, weeded by hand and treated with fertilizers, fungicide and insecticides when needed.
Their resistance against nematode infection was monitored and the efficacy of compounds described herein as a nematicide was measured. Furthermore the phytotoxicity of the test compounds was evaluated.
Efficacy of the compounds described herein as nematicide was measured by giving the roots a percentage of infestation measured as follows. Plants were grown to reach good development of the roots, which corresponds to plants grown to about 10 cm high at about one month after emergence. After removal of the soil from the roots by rinsing with water, the roots were visually inspected and root galls were counted on 4 plants of the set of 12 replicate plants.
Positive control plants were treated with a 10 micromolar concentration of oxamyl (Vydate, 10% SL; the rate of 10 micromolar corresponds to a commercial rate of 20 l/ha), a known nematicide. Negative controls involved double negative controls (no compound, sterile soil), and single negative controls (no compound, with nematode infested soil).

CCCCc1c(C)nc(NCC)nc1OS(=O)(=O)N(C)C [XLIII]
Root knot count, average of the replicate counts (Meloidogyne incognita): 8 | % total deformed ([1]; test of Table 9, Product Rate 500 g ai/ha): 35.53% | % total deformed ([1]; test of Table 9, Product Rate 1500 g ai/ha): 41.34% | % total deformed ([1]; test of Table 9, Product Rate 3000 g ai/ha): 41.02% | number of egg masses (galls) on roots, Replicate 3 ([2]; 0.5 μM): 30 | number of egg masses (galls) on roots, Replicate 2 ([2]; 2 μM): 35 | number of egg masses (galls) on roots, Replicate 3 ([2]; 2 μM): 25 | number of egg masses (galls) on roots, Replicate 1 ([2]; 10 μM): 15 | number of egg masses (galls) on roots, Replicate 2 ([2]; 10 μM): 5 | number of egg masses (galls) on roots, Replicate 3 ([2]; 10 μM): 10 | number of egg masses (galls) on roots, Replicate 1 ([2]; 50 μM): 0 | number of egg masses (galls) on roots, Replicate 2 ([2]; 50 μM): 15 | number of egg masses (galls) on roots, Replicate 3 ([2]; 50 μM): 5 | % INF. (% Infestation) (Meloidogyne nematodes): 1.3%

Source: patent US20090209605A1, “NEMATICIDAL COMPOSITIONS” (Devgen N.V., priority 2004, published 2009)
